Patent publication US10556865B2, “Synergistic herbicidal composition containing certain pyridine or pyrimidine carboxylic acids and certain cereal and rice herbicides” (Dow AgroSciences, LLC, priority 2007, dated 2020)

How the values were obtained:
Format in all cases: in vivo
[1] = test system: Scirpus maritimus L. (SCPMA); test: Herbicidal mixtures for weed control in transplanted paddy rice (in-water application, visual % injury)
Procedure, shortened: (§1)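 Scoring of percent injury is visual, 3 weeks after in-water application, on a scale from 0 to 100. Compounds A, C and D are given as acid equivalent and the ALS, ACCase, auxinic, phytoene desaturase and HPPD partners as active ingredient. Application is at the second or third true leaf stage.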

[2] = test system: Eleocharis kuroguwai OHWI (ELOKU); test: as above
Procedure, shortened: as §1

[3] = test system: Canada thistle (Cirsium arvense L; CIRAR); test: Postemergence herbicidal activity of mixtures in cereal crops (greenhouse, visual injury)
Procedure, shortened: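 Weeds grown in greenhouse (~14 h photoperiod, ~18/17 °C day/night) to second–third true leaf stage, sprayed postemergence with compound and second cereal herbicide alone or combined; solvent-blank controls. Injury scored visually after 20-22 days, 0–100% (complete kill); expected mixture activity = A+B−(A×B/100).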

[4] = test system: Ischaemum rugosum SALISB. (ISCRU); test: Postemergence herbicidal mixtures for weed control in direct seeded rice (greenhouse, visual % injury)

| Structure (SMILES) | % Injury Ob ([1]; 35 g/ha alone) [%] | % Injury Ob ([1]; 70 g/ha alone) [%] | % Injury Ob ([2]; 35 g/ha alone) [%] | % Injury Ob ([2]; 70 g/ha alone) [%] | CIRAR Ob ([3]; 35 g/ha) [%] | CIRAR Ob ([3]; 70 g/ha) [%] | CIRAR Ob ([3]; 140 g/ha) [%] | % Injury ISCRU Ob ([4]; alone 8.75 g/ha) [%] | % Injury ISCRU Ob ([4]; alone 17.5 g/ha) [%] |
| --- | --- | --- | --- | --- | --- | --- | --- | --- | --- |
| COc1c(Cl)ccc(-c2cc(N)c(Cl)c(C(=O)O)n2)c1F [Compound A TEA, 4-amino-3-chloro-6-(4-chloro-2-fluoro-3-methoxyphenyl)pyridine-2-carboxylic acid] | 0 | 50 | 30 | 20 | 50 | 60 | 65 |  |  |
| COC(=O)c1nc(-c2ccc(Cl)c(OC)c2F)cc(N)c1Cl [Compound A Methyl, 4-amino-3-chloro-6-(4-chloro-2-fluoro-3-methoxyphenyl)pyridine-2-carboxylic acid methyl ester] |  |  |  |  |  |  |  | 50 | 55 |
